Source: patent US11306089B2, “Gamma-carboline compounds for the detection of Tau aggregates” (AC IMMUNE SA, priority 2018, dated 2022)
Marks after values point to notes of the source that are not given here.

Columns and labels:
MAO-A [1] = target: T1, MAO-A (Homo sapiens, UniProt P21397); experiment: Binding affinity to MAO-A in human HC brain homogenate (3H-Harmine competition); set-up: key to Low affinity to MAO A (IC50 in human HC brain homogenate), grade: − poor; ∘ moderate; + good; ++ very good; +++ excellent; conditions: for IC50: human control brain homogenate, 3H-Harmine competition
T1 construct: human brain homogenate (without AD pathology, HC); from tissue; host or cells: human brain homogenate without AD pathology (HC)
T1 sequence (P21397 1-527): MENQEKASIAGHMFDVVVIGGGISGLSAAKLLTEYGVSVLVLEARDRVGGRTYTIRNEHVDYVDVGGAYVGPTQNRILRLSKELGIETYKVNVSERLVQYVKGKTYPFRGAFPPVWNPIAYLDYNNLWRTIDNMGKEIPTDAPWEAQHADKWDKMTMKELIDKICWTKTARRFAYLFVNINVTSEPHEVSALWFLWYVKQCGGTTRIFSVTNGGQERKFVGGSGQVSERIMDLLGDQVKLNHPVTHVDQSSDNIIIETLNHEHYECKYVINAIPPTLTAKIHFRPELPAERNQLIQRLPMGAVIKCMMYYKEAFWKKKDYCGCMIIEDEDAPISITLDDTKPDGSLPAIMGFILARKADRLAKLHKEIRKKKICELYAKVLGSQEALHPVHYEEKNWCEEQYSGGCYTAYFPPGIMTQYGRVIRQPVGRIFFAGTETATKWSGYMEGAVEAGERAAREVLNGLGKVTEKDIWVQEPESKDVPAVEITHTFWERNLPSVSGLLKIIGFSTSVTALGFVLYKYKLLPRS
Procedure: (§1) Determination of the Binding Affinity to MAO-A in HC Brain Homogenate
(§2) 20 μg of mouse whole brain or human brain homogenate (without AD pathology, HC) was incubated with a dilution series of each test compound (1000 to 0.06 nM) in the presence of 700 Bq of ^3H-labeled MAO-A binder Harmine. The samples were shaken at 110 rpm for 60 min at 37° C. Samples were then filtered through GF/B 96 well filter plates and washed twice with 200 μL assay buffer (PBS containing 0.1% BSA and 2% DMSO). Thereafter, 40 μL Szintillation cocktail was added and the filter plates were sealed. The counts were then counted using a TopCount (Perkin Elmer). Non-specific signal was determined with samples containing ^3H-Harmine in the presence of assay buffer without brain substrate and competitor. Specific binding was calculated by subtracting the non-specific signal from the measured samples signal. The unblocked ^3H-Harmine signal was defined as total binding. IC50 values were calculated by Prism V7 (GraphPad) setting total binding to 100%.

MAO-B = target: T2, MAO-B (Homo sapiens, UniProt P27338); experiment: Binding affinity to MAO-B in human HC brain homogenate (3H-deprenyl competition); set-up: key to Low affinity to MAO B (IC50 in human HC brain homogenate), grade: − poor; ∘ moderate; + good; ++ very good; +++ excellent; conditions: for IC50: 3H-deprenyl competition
T2 construct: 20 μg of human brain homogenate (without AD pathology); from tissue; host or cells: human brain homogenate without AD pathology
T2 sequence (P27338 1-520): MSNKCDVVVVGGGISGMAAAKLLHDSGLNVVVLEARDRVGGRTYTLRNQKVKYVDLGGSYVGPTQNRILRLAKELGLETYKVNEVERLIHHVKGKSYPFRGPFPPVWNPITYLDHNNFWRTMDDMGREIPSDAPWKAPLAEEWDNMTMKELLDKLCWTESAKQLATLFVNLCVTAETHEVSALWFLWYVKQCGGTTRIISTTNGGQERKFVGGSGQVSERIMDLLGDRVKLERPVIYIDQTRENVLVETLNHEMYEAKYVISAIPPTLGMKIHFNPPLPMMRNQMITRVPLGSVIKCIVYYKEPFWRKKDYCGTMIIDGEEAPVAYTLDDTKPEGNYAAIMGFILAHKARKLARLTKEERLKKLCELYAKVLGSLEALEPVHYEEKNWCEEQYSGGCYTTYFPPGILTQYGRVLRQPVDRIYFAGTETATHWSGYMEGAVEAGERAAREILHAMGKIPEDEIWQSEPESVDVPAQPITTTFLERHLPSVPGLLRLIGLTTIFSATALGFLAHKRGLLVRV
Procedure: Determination of the Binding Affinity to MAO-B in HC Brain Homogenate
as §2, with “of” for “of mouse whole brain or”, “pathology)” for “pathology, HC)”, “MAO-B” for “MAO-A”, “Deprenyl.” for “Harmine.”, “^3H-deprenyl” for “^3H-Harmine”

[2] = target: Tau in human Alzheimer disease brain homogenate (Homo sapiens, UniProt P10636); experiment: Competition binding to Tau in AD brain homogenate (18F-labeled Tau binder); set-up: key to High affinity to Tau (IC50 in AD brain homogenate), grade: − poor; ∘ moderate; + good; ++ very good; +++ excellent; conditions: for IC50 / High affinity to Tau (IC50 in AD brain homogenate), grade: non-radioactive fluorine-19 derivatives
Procedure: Determination of Binding in AD and Healthy Control Brain Homogenates
20 μg of human Alzheimer disease brain homogenate was incubated with a dilution series of each test compound (1000 to 0.06 nM) in the presence of 800 Bq of ^18F-labeled Tau binder. The samples were shaken at 110 rpm for 45 min at 37° C. Samples were then filtered through GF/B 96 well filter plates and washed twice with 300 μL assay buffer (PBS containing 0.1% BSA and 2% DMSO). Thereafter, filter plates were sealed and a Fuji Film Imaging Plate (BAS-SR2025) was placed on top. The imaging plate was analyzed after overnight exposition using a Fuji Film BAS-5000. Non-specific signal was determined with samples containing ^18F-labeled Tau-reference binder in the presence of assay buffer without brain substrate and competitor. Specific binding was calculated by subtracting the non-specific signal from the measured samples signal. The unblocked ^18F-labeled Tau-binder signal was defined as total binding. IC50 values were calculated by Prism V7 (GraphPad) setting total binding to 100%.

[3] = target: amyloid-beta in human Alzheimer disease brain homogenate (Homo sapiens, UniProt P05067); experiment: Binding affinity to amyloid-beta in AD brain homogenate (3H-PIB competition); set-up: key to Low affinity to amyloid-beta (IC50 in AD brain homogenate), grade: − poor; ∘ moderate; + good; ++ very good; +++ excellent; conditions: non-radioactive fluorine-19 derivatives; for IC50: human AD brain homogenate
Procedure: Determination of the Binding Affinity to Amyloid-Beta in AD Brain Homogenate 20 μg of human Alzheimer disease brain homogenate was incubated with a dilution series of each test compound (1000 to 0.06 nM) in the presence of 700 Bq of ^3H-labeled beta-amyloid binder PIB. The samples were shaken at 110 rpm for 60 min at 37° C. Samples were then filtered through GF/B 96 well filter plates and washed twice with 200 μL assay buffer (PBS containing 0.1% BSA and 2% DMSO). Thereafter, 40 μL Szintillation cocktail was added and the filter plates were sealed. The counts were then counted using a TopCount (Perkin Elmer). Non-specific signal was determined with samples containing ^3H-labeled beta-amyloid binder in the presence of assay buffer without brain substrate and competitor. Specific binding was calculated by subtracting the non-specific signal from the measured samples signal. The unblocked ^3H-labeled beta-amyloid binder signal was defined as total binding. IC50 values were calculated by Prism V7 (GraphPad) setting total binding to 100%.

MAO-A [4] = target: T3, MAO-A (Mus musculus, UniProt Q64133); experiment: Binding affinity to MAO-A in mouse whole brain homogenate (3H-Harmine competition); set-up: key to Low affinity to MAO A (IC50 in mouse brain homogenate), grade: − poor; ∘ moderate; + good; ++ very good; +++ excellent; conditions: for fold higher IC50 than compound 18F-1, MAO A in whole mouse brain homogenate: ratio to 18F-1
T3 construct: 20 μg of mouse whole brain or human brain homogenate; from tissue; host or cells: mouse whole brain homogenate
T3 sequence (Q64133 1-526): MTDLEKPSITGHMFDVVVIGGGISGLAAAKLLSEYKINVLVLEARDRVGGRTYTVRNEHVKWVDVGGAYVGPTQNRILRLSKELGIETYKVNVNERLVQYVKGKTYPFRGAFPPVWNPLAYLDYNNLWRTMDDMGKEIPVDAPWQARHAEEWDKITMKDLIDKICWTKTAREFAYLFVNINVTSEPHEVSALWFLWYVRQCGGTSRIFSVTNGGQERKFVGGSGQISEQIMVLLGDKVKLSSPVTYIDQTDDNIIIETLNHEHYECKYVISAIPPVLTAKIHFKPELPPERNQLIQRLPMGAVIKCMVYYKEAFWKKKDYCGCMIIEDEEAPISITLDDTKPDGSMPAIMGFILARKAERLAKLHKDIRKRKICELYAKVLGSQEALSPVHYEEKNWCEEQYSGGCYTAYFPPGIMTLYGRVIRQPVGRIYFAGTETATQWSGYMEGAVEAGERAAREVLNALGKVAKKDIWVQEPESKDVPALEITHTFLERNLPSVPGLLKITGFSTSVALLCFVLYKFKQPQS
Procedure: as §1, §2

[5] = target: T4, aggregated recombinant human K18 fibrils (Homo sapiens, UniProt P10636); experiment: Binding affinity to K18 Tau aggregates (3H-labeled Tau binder competition); set-up: key to High affinity to Tau (IC50 using K18 Tau aggregates), grade: − poor; ∘ moderate; + good; ++ very good; +++ excellent; conditions: non-radioactive fluorine-19 derivatives; for IC50: read-out: IC50 using K18 Tau aggregates
T4 construct: aggregated recombinant human K18 fibrils
Procedure: Determination of the Binding Affinity to K18 Tau Aggregates
200 ng of aggregated recombinant human K18 fibrils were incubated with a dilution series of each test compound (1000 to 0.06 nM) in the presence of 3 nM of ^3H-labeled Tau binder. The samples were shaken at 110 rpm for 60 min at 37° C. Samples were then filtered through GF/B 96 well filter plates and washed twice with 200 μL assay buffer (PBS containing 0.1% BSA and 2% DMSO). Thereafter, 40 μL of MicroScint 40 was added to each well of the filter plate. Filter plates were sealed and then placed shaking at 110 rpm at 37° C. for 15 min. Measurement was done by TopCount NXT HTS (PerkinElmer). Non-specific signal was determined with samples containing ^3H-labeled Tau binder in the presence of 2.5 μM unlabeled Tau-reference binder and K18 fibrils. Specific binding was calculated by subtracting the non-specific signal from the measured samples signal. The unblocked ^3H-labeled Tau-binder signal was defined as total binding. IC50 values were calculated by Prism V7 (GraphPad) setting total binding to 100%.

[6] = Tracer signal in HC brain homogenate compared to AD brain homogenate; type: binding, human; set-up: key to Signal to noise (% signal intensity in HC brain homogenate compared to tracer signal in AD brain homogenate), grade: − poor; ∘ moderate; + good; ++ very good; +++ excellent
[7] = Tracer signal in mouse brain homogenate compared to AD brain homogenate; type: binding; set-up: key to High signal to noise (% signal intensity in mouse brain homogenate compared to tracer signal in AD brain homogenate), grade: − poor; ∘ moderate; + good; ++ very good; +++ excellent; conditions: radioactive fluorine-18 derivatives
[8] = mouse brain homogenate, 3H-Harmine competition
[9] = radioactive fluorine-18 derivatives

Sequence of Tau in human Alzheimer disease brain homogenate (P10636 623-708 limits assumed): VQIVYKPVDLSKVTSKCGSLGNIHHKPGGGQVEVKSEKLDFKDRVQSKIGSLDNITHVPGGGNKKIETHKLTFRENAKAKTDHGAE
Sequence of amyloid-beta in human Alzheimer disease brain homogenate (P05067 672-711 limits assumed): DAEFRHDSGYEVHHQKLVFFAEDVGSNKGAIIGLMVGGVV
T4 sequence (P10636 561-685 limits assumed): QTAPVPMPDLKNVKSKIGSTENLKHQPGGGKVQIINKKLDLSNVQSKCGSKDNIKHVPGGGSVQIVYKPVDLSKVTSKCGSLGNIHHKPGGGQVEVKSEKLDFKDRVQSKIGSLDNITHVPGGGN

IC50 (MAO-A [1]) | IC50 (MAO-B; human HC brain homogenate) | IC50 ([2]; human AD brain homogenate) | IC50 [3] | IC50 (MAO-A [4]; [8]) | IC50 [5] | High affinity to Tau (IC50 in AD brain homogenate), grade [2] | Low affinity to MAO A (IC50 in mouse brain homogenate), grade (MAO-A [4]; mouse brain homogenate) | fold higher IC50 than compound 18F-1, MAO A in whole mouse brain homogenate (MAO-A [4]) | Structure (SMILES) | further results
5.9 nM | 78 nM | < 2 nM | > 1000 nM | 4.6 nM | – | – | – | – | Fc1ccc(-c2ccc3c(c2)[nH]c2ccncc23)cn1 [F-1, reference compound] | –
37.2 nM | 778 nM | < 2 nM | > 1000 nM | 51.4 nM | – | – | – | – | Fc1cc(-c2ccc3c(c2)[nH]c2ccncc23)ccn1 [F-2] | –
– | – | – | – | – | – | – | – | – | Fc1cc(-c2nc3[nH]c4ccncc4c3s2)ccn1 [F-3] | affinity towards tau (in words) ([2]; competition assay, human AD brain homogenate): good affinity; MAO-A binding affinity (in words) (MAO-A [4]; [8]): Low affinity
5.9 nM | 78 nM | < 2 nM | > 1000 nM | 4.6 nM | 19.6 nM | – | – | – | [18F]c1ccc(-c2ccc3c(c2)[nH]c2ccncc23)cn1 [^18F-1, reference compound] | –
37.2 nM | 778 nM | < 2 nM | > 1000 nM | 51.4 nM | 3 nM | +++ | ∘ | 11 fold | [18F]c1cc(-c2ccc3c(c2)[nH]c2ccncc23)ccn1 [^18F-2] | Low affinity to MAO A (IC50 in human HC brain homogenate), grade (MAO-A [1]; human HC brain homogenate): ∘; fold higher IC50 than compound 18F-1, MAO A in human control brain homogenate (MAO-A [1]; ratio to 18F-1): 6.3 fold; Low affinity to MAO B (IC50 in human HC brain homogenate), grade (MAO-B; human HC brain homogenate): ++; fold higher IC50 than compound 18F-1, MAO B in HC brain homogenate (MAO-B; ratio to 18F-1): > 10 fold; Low affinity to amyloid-beta (IC50 in AD brain homogenate), grade ([3]; AD brain homogenate): +++^a); less relative signal in HC brain homogenate ratio than 18F-1 ([6]; binding in AD brain homogenate and HC brain homogenate, difference to 18F-1): 19%; % signal intensity in HC brain homogenate compared to tracer signal in AD brain homogenate [6, 9]: (66%); Signal to noise (% signal intensity in HC brain homogenate compared to tracer signal in AD brain homogenate), grade [6, 9]: ∘; % signal intensity in mouse brain homogenate compared to tracer signal in AD brain homogenate [7]: (57%); High signal to noise (% signal intensity in mouse brain homogenate compared to tracer signal in AD brain homogenate), grade [7]: +; High affinity to Tau (IC50 using K18 Tau aggregates), grade ([5]; K18 Tau aggregates): ++
– | – | 13.4 nM | – | > 1000 nM | – | + | +++ | > 100 fold | [18F]c1cc(-c2cc3[nH]c4ccncc4c3s2)ccn1 [^18F-3] | –
